From patent publication US6632793B1, “Immunological activity for a peptide of the limulus anti-LPS factor” (Centro de Ingenieria Genetica y Biotecnologia, priority 1997, dated 2003)

Assays:
Type in all cases: cell-based
[1] = test system: human mononuclear cells; experiment: Antiviral effect on Hep-2 cells of supernatant from human mononuclear cells stimulated with peptide; details: for Antiviral effect of supernatant, 1: supernatant on Hep-2, experiment 1; for Antiviral effect of supernatant, 2: supernatant on Hep-2, experiment 2; for Antiviral effect of supernatant, 3: supernatant on Hep-2, experiment 3; for Antiviral effect of supernatant, Mean: supernatant on Hep-2, mean of 3
Experimental: (§1) Then the cells were washed with saline solution and infected with […] of Mengo virus, provide by Institute of Molecular Biology, University of Zurich, which is multiplied in the cell line L929 murine fibroblasts. 18 h later degree of cell destruction was measured by fixation and staining, generally with crystal violet, for reading of cytophatic effect was used a photometer Ultramicroanalytical System (SUMA). A computer program in Pascal UCSD language for the microcomputer system was developed for all calculations and corrections (Ferrero et al., 1994, Biotecnologia Aplicada. Vol. 1:). In this case serial dilution's of human γ-IFN 70 000 IU/ml (MRI, Freeze-dried Reference Human Recombinant Gamma Interferon) was used as standard in order to define unit of antiviral activity. For this reason the antiviral protection shown by the peptide is related to International Units of γ-IFN (Ul/ml). As a negative control were used different peptides from proteins that bind endotoxin. LPS at 10 ng/ml was used as a positively control because is well known that it induced the production of IFNs (Manthey et al., 1994, J. Immunology. Vol. 153: 2653-2663). One unit of antiviral activity is define as the quantity of IFN able to produce an 50% inhibition of the viral replication.
Venous blood was obtained from healthy volunteers and Ficoll-Hypaque centrifugation, fractionated mononuclear cells. The mononuclear cells were washed and resuspended in endotoxin-free RPMI-1640 culture medium supplemented with 10% fetal calf serum. Concentration of 2×10^6 cells/ml were aliquoted into 24-well microtiter plates (Nunc, Denmark). The cells were then incubated with 14 and 28 μg/ml of different peptides: Limulus anti-LPS factor31-52 (LALF), Lipopolysaccharide Binding Protein86-99 (LBP) and 18 kDa Cationic Antimicrobial Protein108-128 (CAP-18), at 37° C. for 18 hours in 5% CO2. The cells were centrifuged at 3000 rpm for 5 min and then serial dilutions of supematants were assays for antiviral activity using the procedures described in the example 2.

[2] = test system: Mengo virus on cell line Hep-2; experiment: Antiviral effect: inhibition of the cytopathic effect of Mengo virus on cell line Hep-2; details: 24 h pre-incubation; for Antiviral effect, 1: experiment 1; for Antiviral effect, 2: experiment 2; for Antiviral effect, 3: experiment 3; for Antiviral effect, Mean: mean of 3
Experimental: as §1

[3] = test system: TNFα from human mononuclear cells; experiment: TNF-α synthesis by human mononuclear cells (ELISA of supernatant); details: 18 h, mean of three donors
Experimental: Venous blood was obtained from healthy volunteers and Ficoll-Hypaque centrifugation, fractionated mononuclear cells. The mononuclear cells were washed and resuspended in endotoxic-free RPMI 1640 medium supplemented with 10% fetal calf serum. 30×10^6 cells were aliquoted into plates p-60 (Nunc, Denmark). The cells were incubated with 14 or 28 μg/ml LALF at 37° C. for 18 hours in 5% CO2 and then centrifuged at 3000 rpm during 5 min. The synthesis of TNFα in the supernatant was determined by specific enzyme-linked immunoadsorbent assay (ELISA), kindly provided by Dr. W. Buurman (University Hospital Maastrich, The Netherlands).

[4] = mononuclear cells stimulated with 14 μg/ml for 18 h
[5] = mononuclear cells stimulated with 28 μg/ml for 18 h

## CAP-18 [reference compound]
[1]; [4]
  Antiviral effect of supernatant, 1: 7.8 IU/ml γ-IFN
  Antiviral effect of supernatant, 2: 8 IU/ml γ-IFN
  Antiviral effect of supernatant, 3: 11 IU/ml γ-IFN
  Antiviral effect of supernatant, Mean: 8.93 IU/ml γ-IFN
[1]; [5]
  Antiviral effect of supernatant, 1: 8.2 IU/ml γ-IFN
  Antiviral effect of supernatant, 2: 9 IU/ml γ-IFN
  Antiviral effect of supernatant, 3: 9.6 IU/ml γ-IFN
  Antiviral effect of supernatant, Mean: 8.93 IU/ml γ-IFN
[2]; Hep-2, 14 μg/ml
  Antiviral effect, 1: 9 IU/ml γ-IFN
  Antiviral effect, 2: 8.7 IU/ml γ-IFN
  Antiviral effect, 3: 9.2 IU/ml γ-IFN
  Antiviral effect, Mean: 8.9 IU/ml γ-IFN
[2]; Hep-2, 28 μg/ml
  Antiviral effect, 1: 12.2 IU/ml γ-IFN
  Antiviral effect, 2: 9 IU/ml γ-IFN
  Antiviral effect, 3: 9 IU/ml γ-IFN
  Antiviral effect, Mean: 10.9 IU/ml γ-IFN
[3]; 14 μg/ml
  TNF - α: 0.76 ng/mL
[3]; 28 μg/ml
  TNF - α: 0.75 ng/mL
